Measured values from PubChem BioAssay (NCI).
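Values below derive from 48-hour exposures of cells grown in 96-well plates, with endpoints linearly interpolated between the two concentrations bracketing the appropriate inhibition level. At the GI50, growth is halved. Definition used: TGI = concentration required for complete inhibition of growth.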

Legend:
Experiment in all cases: NCI tumour cell line growth inhibition, 48 h
RPMI-8226 leukemia = tested on: RPMI-8226 leukemia
TK-10 renal = tested on: TK-10 renal
CCRF-CEM leukemia = tested on: CCRF-CEM leukemia
786-0 renal = tested on: 786-0 renal
SN12C renal = tested on: SN12C renal
SF-539 CNS = tested on: SF-539 CNS
UACC-62 melanoma = tested on: UACC-62 melanoma
UACC-257 melanoma = tested on: UACC-257 melanoma
CAKI-1 renal = tested on: CAKI-1 renal
A498 renal = tested on: A498 renal

Structure (SMILES)	TGI (RPMI-8226 leukemia) [µM]	TGI (TK-10 renal) [µM]	TGI (CCRF-CEM leukemia) [µM]	TGI (786-0 renal) [µM]	TGI (SN12C renal) [µM]	TGI (SF-539 CNS) [µM]	TGI (UACC-62 melanoma) [µM]	GI50 (RPMI-8226 leukemia) [µM]	GI50 (TK-10 renal) [µM]	GI50 (CCRF-CEM leukemia) [µM]	GI50 (786-0 renal) [µM]	GI50 (SN12C renal) [µM]	GI50 (UACC-257 melanoma) [µM]	TGI (UACC-257 melanoma) [µM]	TGI (CAKI-1 renal) [µM]	GI50 (SF-539 CNS) [µM]	GI50 (UACC-62 melanoma) [µM]	GI50 (A498 renal) [µM]	TGI (A498 renal) [µM]	GI50 (CAKI-1 renal) [µM]
COP1(=O)CC2C(Cl)(Cl)C2(C)C1 (stereo not given)	> 100	> 100	> 100	> 100	> 100	> 100	> 100													
S=C(Nc1ccc(-c2nc3ccccc3[nH]2)cc1)NC1CCCCC1	90.2	80.6			55	48.5		16.6	22.8	36.8	33.2	25	26.6	57.1	55.2	22.6	15.3			
N#CC(C#N)=C(N)/C(C#N)=C\c1ccnc2ccccc12		> 100	10.3	37.2	60	31.1	38.9							58.6	92.1					
CN(C)CCNc1nc2ccccc2c2c1c1c(n2Cc2ccccc2)-c2ccccc2C1=O	17.7		24.1	38.3	27.5	29.4	34.3	2.78		7.86	19.2	12.6	19.9	42.6	37.1	14	18.3	14.1	28.9	18
COc1cc2nc(-c3ccc(C(F)(F)F)cc3)cc(OCCCN3CCOCC3)c2cc1OC		30.6	19.3	4.47	19.7	16.4	3.9		13.9	2.79	1.76	0.675	1.67	5.68	11.2	3.18	0.628	1.51	4.52	0.167
Cc1cc2c(CC(=O)O)[nH]nc2c(C(=O)O)c1C	> 100	> 100	> 100	> 100	> 100	> 100	> 100							> 100						
Oc1ccc(Br)cc1Sc1cc(Br)ccc1O	15.6		24.8	35.4	16.8	18.7		3.18		5.25	18.6	3.89	5.2	17.7	45.5	4.66		15.5	31.1	18.7
CC(=O)O/N=C/c1ncccc1CO		> 100	> 100	> 100	> 100	> 100	> 100							> 100	> 100				> 100	
Cc1cc2nc3c(C(OC4OC(CO)C(O)C(O)C4O)C(O)CO)nn(-c4ccccc4)c3nc2cc1C (stereo not given)	> 100	> 100	> 100	> 100	> 100	> 100	> 100							> 100					> 100	
CC(=O)CC1CCC(=O)CCC(=O)OC(CC(C)=O)CCC(=O)CCC(=O)O1 (stereo not given)	> 100	> 100	> 100	> 100	> 100	> 100	> 100							> 100						
Cc1nc(N)sc1C(=O)/C=C/c1ccc(/C=C/C(=O)c2sc(NC(=O)CCCCCCCCC(=O)Nc3nc(C)c(C(=O)/C=C/c4ccc(/C=C/C(=O)c5sc(N)nc5C)cc4)s3)nc2C)cc1		> 100	> 100	> 100	> 100	> 100	87.8							> 100	> 100					
COC1=CC23C=CC1[C@@H](c1ccccc1)C2=C(C)C(=O)N3C(=O)NC1CCCCC1 (stereo not given in full)		84.3	72.5	32.4		39.2	47.6							77.4	45.1				64.1	
c1cnc2c(c1)-n1cccc1C1(CCSCC1)NN2	> 100	> 100	> 100	> 100	> 100	> 100								> 100	> 100					
CC(C)=CC(C(O)c1ccccc1)S(=O)(=O)c1nccn1C (stereo not given)	> 100	> 100	> 100	> 100	> 100	> 100	> 100							> 100						
O=[N+]([O-])c1c(/C=N/Nc2ccccc2)oc(-c2ccc3c(c2)OCO3)c1-c1ccc2c(c1)OCO2	24.2	> 100		> 100	> 100	> 100	> 100							> 100	> 100					
C=CCNC(=S)N1CC(C)C(=O)Nc2ccccc21 (stereo not given)	> 100	> 100	> 100	> 100	> 100	> 100	> 100													
CC1(C)C(=O)N(c2ccccc2)C(=O)N1c1nc2ccccc2[nH]1	> 100	> 100	> 100	> 100	> 100		> 100							> 100	> 100				> 100	
N#CCCc1nc2ccc(Br)cc2c(=O)n1CCO	> 100	> 100	> 100	> 100	> 100	> 100	> 100							> 100	> 100					
COc1ccc2c(c1)C(=O)CC(N)C2 (stereo not given)	> 100	> 100	> 100	> 100	> 100		> 100							> 100	> 100					
CCOC(=O)CCC(=O)C1c2cccc(O)c2C(=O)c2c(O)cccc21		4.76	3.68	3.26	3.22	1.63	1.42							3.3	4.99					
COc1cc(-c2nc3ccc(C)cc3[nH]2)ccc1OCC(=O)N=Nc1c(O)[nH]c2ccccc12		11.1		3.24	3.19	3.01	3.31		3.21		1.76	1.68			3.07	1.62	1.76	2.36	7.46	1.66
